Each compound was assayed on HepG2 (assay: cells). Settings: Homo sapiens, HepG2, 24 h.
Description: Antiproliferative activity against human HepG2 cells after 24 hrs by MTT assay

SMILES	IC50 [nM]
O=C(/C=C/Nc1ccccn1)c1cccc(NC(=S)Nc2ccc(S(=O)(=O)Nc3ccccn3)cc2)c1	4700
CN(C)/C=C/C(=O)c1ccc(NC(=S)Nc2ccc(S(=O)(=O)Nc3ccccn3)cc2)cc1	3500
CN(C)/C=C/C(=O)c1cccc(NC(=S)Nc2ccc(S(=O)(=O)Nc3ccccn3)cc2)c1	5500
Cc1c(N/C=C/C(=O)c2ccc(NC(=S)Nc3ccc(S(=O)(=O)Nc4ccccn4)cc3)cc2)c(=O)n(-c2ccccc2)n1C	8000
O=C(/C=C/Nc1ccccn1)c1ccc(NC(=S)Nc2ccc(S(=O)(=O)Nc3ccccn3)cc2)cc1	3100
CC(=O)c1cccc(NC(=S)Nc2ccc(S(=O)(=O)Nc3ccccn3)cc2)c1	5000
Cc1c(N/C=C/C(=O)c2cccc(NC(=S)Nc3ccc(S(=O)(=O)Nc4ccccn4)cc3)c2)c(=O)n(-c2ccccc2)n1C	11400
O=C(/C=C/Nc1ccccc1)c1ccc(NC(=S)Nc2ccc(S(=O)(=O)Nc3ccccn3)cc2)cc1	3900
COC(=O)c1c(N/C=C/C(=O)c2cccc(NC(=S)Nc3ccc(S(=O)(=O)Nc4ccccn4)cc3)c2)sc(C)c1C	10800
O=S(=O)(Nc1ccccn1)c1ccc(N=C=S)cc1	5500
COC(=O)c1c(N/C=C/C(=O)c2ccc(NC(=S)Nc3ccc(S(=O)(=O)Nc4ccccn4)cc3)cc2)sc(C)c1C	6200
O=C(/C=C/Nc1ccccc1)c1cccc(NC(=S)Nc2ccc(S(=O)(=O)Nc3ccccn3)cc2)c1	4700
CC(=O)c1ccc(NC(=S)Nc2ccc(S(=O)(=O)Nc3ccccn3)cc2)cc1	6900

Stronger by IC50, values ahead:

IC50 [nM]	SMILES
1600	Cc1ccc(N/C=C/C(=O)c2cccc(NC(=S)Nc3ccc(S(=O)(=O)Nc4ccccn4)cc3)c2)c(C(=O)O)c1
1200	O=C(/C=C/Nc1ccc(F)cc1)c1cccc(NC(=S)Nc2ccc(S(=O)(=O)Nc3ccccn3)cc2)c1
2500	O=C(/C=C/NCc1ccccc1)c1cccc(NC(=S)Nc2ccc(S(=O)(=O)Nc3ccccn3)cc2)c1
2300	O=C(/C=C/NCc1ccccc1)c1ccc(NC(=S)Nc2ccc(S(=O)(=O)Nc3ccccn3)cc2)cc1
120	CCOC(=O)N/C=C/C(=O)c1ccc(NC(=S)Nc2ccc(S(=O)(=O)Nc3ccccn3)cc2)cc1
420	O=C(/C=C/Nc1ccc(F)cc1)c1ccc(NC(=S)Nc2ccc(S(=O)(=O)Nc3ccccn3)cc2)cc1
440	O=C(/C=C/Nc1ccccc1Cl)c1ccc(NC(=S)Nc2ccc(S(=O)(=O)Nc3ccccn3)cc2)cc1
1500	COC(=O)/C=C(/C)N/C=C/C(=O)c1cccc(NC(=S)Nc2ccc(S(=O)(=O)Nc3ccccn3)cc2)c1
1400	O=C(/C=C/Nc1ccccc1O)c1ccc(NC(=S)Nc2ccc(S(=O)(=O)Nc3ccccn3)cc2)cc1
1060	CNC(=O)c1cc(Oc2ccc(NC(=O)Nc3ccc(Cl)c(C(F)(F)F)c3)cc2)ccn1 [SORAFENIB]
290	COC(=O)/C=C(/C)N/C=C/C(=O)c1ccc(NC(=S)Nc2ccc(S(=O)(=O)Nc3ccccn3)cc2)cc1
500	O=C(/C=C/Nc1ccccc1Cl)c1cccc(NC(=S)Nc2ccc(S(=O)(=O)Nc3ccccn3)cc2)c1
1500	CCOC(=O)c1ccc(N/C=C/C(=O)c2cccc(NC(=S)Nc3ccc(S(=O)(=O)Nc4ccccn4)cc3)c2)cc1
2900	O=C(/C=C/Nc1ccccc1O)c1cccc(NC(=S)Nc2ccc(S(=O)(=O)Nc3ccccn3)cc2)c1
580	Cc1ccc(C(=O)O)c(N/C=C/C(=O)c2ccc(NC(=S)Nc3ccc(S(=O)(=O)Nc4ccccn4)cc3)cc2)c1
1900	CCOC(=O)N/C=C/C(=O)c1cccc(NC(=S)Nc2ccc(S(=O)(=O)Nc3ccccn3)cc2)c1
660	CCOC(=O)c1ccc(N/C=C/C(=O)c2ccc(NC(=S)Nc3ccc(S(=O)(=O)Nc4ccccn4)cc3)cc2)cc1

Each compound was assayed on HepG2 (assay: cells). Settings: Homo sapiens, HepG2, light or radiation study.
Description: Phototoxicity against human HepG2 cells assessed as reduction in cell viability pretreated for 2 hrs followed by 8 Gy gamma irradiation for 17.73 mins measured after 48 hrs by MTT assay

IC50 [nM]	SMILES
70	CCOC(=O)N/C=C/C(=O)c1ccc(NC(=S)Nc2ccc(S(=O)(=O)Nc3ccccn3)cc2)cc1
230	O=C(/C=C/Nc1ccc(F)cc1)c1ccc(NC(=S)Nc2ccc(S(=O)(=O)Nc3ccccn3)cc2)cc1
250	O=C(/C=C/Nc1ccccc1Cl)c1ccc(NC(=S)Nc2ccc(S(=O)(=O)Nc3ccccn3)cc2)cc1
160	COC(=O)/C=C(/C)N/C=C/C(=O)c1ccc(NC(=S)Nc2ccc(S(=O)(=O)Nc3ccccn3)cc2)cc1
300	Cc1ccc(C(=O)O)c(N/C=C/C(=O)c2ccc(NC(=S)Nc3ccc(S(=O)(=O)Nc4ccccn4)cc3)cc2)c1
390	CCOC(=O)c1ccc(N/C=C/C(=O)c2ccc(NC(=S)Nc3ccc(S(=O)(=O)Nc4ccccn4)cc3)cc2)cc1
